System: catfish diagnosed as having PGD (proliferative gill disease)
Test: treatment of rearing pond containing catfish diseased with PGD
Assay type: in vivo
Protocol: In order to effect these concentrations in the tank or pond where the diseased fish are contained the concentrated solution of Chloramine-T is prepared for using the correct amount of Chloramine-T for the volume of water which is contained in the tank or pond where the diseased fish reside. This concentrated solution is then spread evenly over the surface of the pond or tank via the use of a chemical boat. In order to aid mixing aeration equipment is run one hour before the application and 35 hours after the application.
1. A pond of 17 acres, 4.5 feet deep holding approximately 2 million catfish contained approximately 76.5 acre feet of water. […] […] Upon examination the whole fish population was diagnosed as having PGD in various stages with some of the fish dying. 411.57 pounds of Chloramine-T was dissolved in 50 gallons of water contained in a tank on a chemical boat, as the boat moved over the pond the Chloramine-T was applied evenly over the surface of the pond.

[1] = Example 1, catfish 2 to 4 inches, 2 ppm, after 72 hours
[2] = Example 2, catfish 6 to 9 inches, 2 ppm, after 72 hours
[3] = Example 3, catfish 1 to 1.25 pounds, 2 ppm, after 72 hours
[4] = Example 4, catfish 8 to 11 inches, 2 ppm, after 72 hours
[5] = Example 5, catfish 8 to 11 inches, 1.5 ppm, after 72 hours

In the case of `Cc1ccc(S(=O)(=O)NCl)cc1.[Na]` [Chloramine-T, N-Sodium, N-chloro-para-toluenesulfonamide], the “death rate of the fish” value (Example 1, catfish 2 to 4 inches, approx. 2 million, 2 ppm in pond, 24 hours after application) is reported as “substantially decreased”, the “death rate of the fish” value (Example 1, catfish 2 to 4 inches, 2 ppm, after 48 hours) is reported as “further decreased” and the “PGD status upon examination of the fish population” value (“PGD status upon examination” below) [1] is reported as “in remission”. For the same molecule, the death of fish [1] was “essentially stopped”, the “PGD status upon examination” value (Example 1, catfish 2 to 4 inches, 2 ppm, after 96 hours) was “free of PGD” and the “death rate of the fish” value (Example 2, catfish 6 to 9 inches, approx. 1 million, 2 ppm in pond, 24 hours after application) was “substantially decreased”. For the same molecule, the “death rate of the fish” value (Example 2, catfish 6 to 9 inches, 2 ppm, after 48 hours) was “further decreased”, the “PGD status upon examination” value [2] was “in remission” and the death of fish [2] was “essentially stopped”. The “PGD status upon examination” value (Example 2, catfish 6 to 9 inches, 2 ppm, after 96 hours) was “free of PGD”, the “death rate of the fish” value (Example 3, catfish 1 to 1.25 pounds, approx. 125,000, 2 ppm in pond, 24 hours after application) was “substantially decreased” and the “death rate of the fish” value (Example 3, catfish 1 to 1.25 pounds, 2 ppm, after 48 hours) was “further decreased”. The “PGD status upon examination” value [3] was “in remission”, the death of fish [3] was “essentially stopped” and the “PGD status upon examination” value (Example 3, catfish 1 to 1.25 pounds, 2 ppm, after 96 hours) was “free of PGD”. For the same molecule, the “death rate of the fish” value (Example 4, catfish 8 to 11 inches, approx. 700,000, 2 ppm in pond, 24 hours after application) was “substantially decreased”, the “death rate of the fish” value (Example 4, catfish 8 to 11 inches, 2 ppm, after 48 hours) was “further decreased” and the “PGD status upon examination” value [4] was “in remission”. For the same molecule, the death of fish [4] was “essentially stopped”, the “PGD status upon examination” value (Example 4, catfish 8 to 11 inches, 2 ppm, after 96 hours) was “free of PGD” and the “death rate of the fish” value (Example 5, catfish 8 to 11 inches, approx. 700,000, 1.5 ppm in pond, 24 hours after application) was “no decrease”. The “death rate of the fish” value (Example 5, catfish 8 to 11 inches, 1.5 ppm, after 48 hours) was “not decreased”, the “PGD status upon examination” value [5] was “continued unabated” and the death of fish [5] was “continued”. The “PGD status upon examination” value (Example 5, catfish 8 to 11 inches, 1.5 ppm, after 96 hours) was “continued to die and be afflicted with PGD”, the “survival of the diseased fish” value (Example 6, catfish 8 to 11 inches, approx. 450,000, 387 pounds in 48 acre feet, printed 1.5 ppm, 24 hours after application) was “all of the fish were dead” and the “control of PGD in diseased catfish (summary of Examples 1 through 6)” value (concentrations of less than 2 ppm) was “ineffective”. The “toxicity to diseased catfish (summary of Examples 1 through 6)” value (concentrations of more than 3 ppm) was “kill the diseased catfish” and the “control of PGD in diseased catfish (summary of Examples 1 through 6)” value (use in accordance with the process of the invention (2 to 3 ppm)) was “eliminates PGD”.

Reference: patent publication US6386145B1, “Process for curing diseases in cultured fish” (B. L. Mitchell, Inc., priority 2000, dated 2002)
